Test results published in patent publication US9615577B2, “Herbicidally active cyclic dione compounds, or derivatives therefor, substituted by a phenyl which has an alkynyl-containing substituent” (Syngenta Limited, priority 2012, dated 2017).

How the values were obtained:
Format in all cases: in vivo
[1] = system: Echinochloa crus-galli (ECHCG); test: Test 1A glasshouse assay for herbicidal activity, post-emergence; details: 312 h, 250 g/ha, evaluated after 13 days, read-out: percentage phytotoxicity ECHCG
How it was run: (§1)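 Pre-em: spray 1 d after sowing; post-em: spray after 8 d cultivation. Formulation in acetone/water (50:50), 0.5% Tween 20. Glasshouse 24/16 °C d/n, 14 h light, 65% humidity. Readout: visual % damage at 13 d.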

[2] = system: Amaranthus retroflexus (AMARE); test: as above; details: 312 h, 250 g/ha, evaluated after 13 days, read-out: percentage phytotoxicity AMARE
How it was run: as §1

[3] = system: Alopecurus myosuroides (ALOMY); test: as above; details: 312 h, 250 g/ha, evaluated after 13 days, read-out: percentage phytotoxicity ALOMY
How it was run: as §1

[4] = system: Ipomoea hederacea (IPOHE); test: as above; details: 312 h, 250 g/ha, evaluated after 13 days, read-out: percentage phytotoxicity IPOHE
How it was run: as §1

Setaria faberi (SETFA) [5] = test: as above; details: 312 h, 250 g/ha, evaluated after 13 days, read-out: percentage phytotoxicity SETFA
How it was run: as §1

Solanum nigrum (SOLNI) [6] = test: as above; details: 312 h, 250 g/ha, evaluated after 13 days, read-out: percentage phytotoxicity SOLNI
How it was run: as §1

[7] = system: Echinochloa crus-galli (ECHCG); test: Test 1A glasshouse assay for herbicidal activity, pre-emergence; details: 312 h, 250 g/ha, evaluated after 13 days, read-out: percentage phytotoxicity ECHCG
How it was run: as §1

[8] = system: Amaranthus retroflexus (AMARE); test: as above; details: 312 h, 250 g/ha, evaluated after 13 days, read-out: percentage phytotoxicity AMARE
How it was run: as §1

[9] = system: Alopecurus myosuroides (ALOMY); test: as above; details: 312 h, 250 g/ha, evaluated after 13 days, read-out: percentage phytotoxicity ALOMY
How it was run: as §1

[10] = system: Ipomoea hederacea (IPOHE); test: as above; details: 312 h, evaluated after 13 days, read-out: percentage phytotoxicity IPOHE
How it was run: as §1

Setaria faberi (SETFA) [11] = test: as above; details: 312 h, 250 g/ha, evaluated after 13 days, read-out: percentage phytotoxicity SETFA
How it was run: as §1

Solanum nigrum (SOLNI) [12] = test: as above; details: 312 h, evaluated after 13 days, read-out: percentage phytotoxicity SOLNI
How it was run: as §1

[13] = system: Echinochloa crus-galli (ECHCG); test: Biological Example 2 comparative herbicidal data, post-emergence glasshouse screen; details: 312 h, read-out: Post-emergence herbicidal activities (percentage phytotoxicity) ECHCG
How it was run: (§2)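 Plants grown 8 days in a glasshouse (24/16°C day/night, 14 h light, 65% humidity) were sprayed with compound in acetone/water (50:50) containing 0.5% Tween 20. They were kept under the same conditions and watered twice daily. Phytotoxicity was scored visually after 13 days (0 = no damage, 100 = total damage).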

[14] = system: Alopecurus myosuroides (ALOMY); test: as above; details: 312 h, read-out: Post-emergence herbicidal activities (percentage phytotoxicity) ALOMY
How it was run: as §2

Setaria faberi (SETFA) [15] = test: as above; details: 312 h, read-out: Post-emergence herbicidal activities (percentage phytotoxicity) SETFA
How it was run: as §2

[16] = system: Glycine max (GLXMA, soybean); test: Test 1B glasshouse assay for herbicidal activity, post-emergence; details: 360 h; for plant injury at 60 g/ha: 60 g/ha application rate
Description: (§3) Seeds of a variety of monocotyledonous and dicotyledonous test plants are sown in standard soil in pots. The plants are cultivated for one day (for pre-emergence) or for about 12 days (range=10-13 days) (for post-emergence) under controlled conditions in a glasshouse (warm climate species at 24/18° C., cool climate species at 20/16° C., both at day/night; 16 hours light; 65% humidity).
(§4) An “instant formulation”, known as the “IF50”, containing 50 g/liter (i.e. 5% w/v) of the “technical” (i.e. unformulated) active ingredient is prepared by dissolving the active ingredient in a mixture of organic solvents and emulsifier, details of which are provided in the Table below. This IF50 is then mixed with a small, variable amount of acetone to aid dissolution, before addition of a 0.2% v/v aqueous solution of the adjuvant X-77 (which is a mixture of alkyl aryl polyoxyethylene glycols and free fatty acids in isopropanol, CAS Registry number 11097-66-8), as the aqueous diluent, to form an aqueous spray solution which contains a predetermined concentration of the active ingredient (which varies depending on the application rate of the active ingredient to the plants) and 0.2% v/v of the adjuvant X-77. This aqueous spray solution is then sprayed onto the plants, after one day's cultivation (for pre-emergence) or after about 12 days' cultivation (for post-emergence).
(§5) The test plants are then grown on, in a glasshouse (greenhouse) under controlled conditions (at either 24/18° C. or 20/16° C. (day/night) as mentioned above; 16 hours light; 65% humidity) and are watered twice daily. Either 15 days after application of the herbicide (15 DAA) (for post-emergence), or 20 days after application of the herbicide (20 DAA) (for pre-emergence), the test plants are evaluated visually, and an assessed percentage phytotoxicity score is given for each herbicidal application on each plant species (where 100%=total damage to plant; 0%=no damage to plant).
Warm climate crop plants: Glycine max (GLXMA, soybean).

Setaria faberi (SETFA) [17] = test: as above; details: 360 h; for pest or weed control at 60 g/ha: 60 g/ha application rate
Description: as §3, §4, §5
(§6) Warm climate (“warm season”) grassy monocotyledonous weeds: Setaria faberi (SETFA), SORVU (Sorghum bicolor (L.) Moench ssp. Bicolor, or Sorghum vulgare Pers.), Digitaria sanguinalis (DIGSA), Echinochloa crus-galli (ECHCG), and Brachiaria plantaginea (BRAPL).

[18] = system: Digitaria sanguinalis (DIGSA); test: as above; details: 360 h; for pest or weed control at 60 g/ha: 60 g/ha application rate
Description: as §3, §4, §5, §6

[19] = system: Brachiaria plantaginea (BRAPL); test: as above; details: Urochloa plantaginea; for pest or weed control at 60 g/ha: 60 g/ha application rate
Description: as §3, §4, §5, §6

[20] = system: Alopecurus myosuroides (ALOMY); test: as above; details: 360 h; for pest or weed control at 60 g/ha: 60 g/ha application rate
Description: as §3, §4, §5
(§7) Cool climate (“cool season”) grassy monocotyledonous weeds: Alopecurus myosuroides (ALOMY), Avena fatua (AVEFA), Lolium perenne (LOLPE).

Lolium perenne (LOLPE) = test: as above; details: 360 h; for pest or weed control at 60 g/ha: 60 g/ha application rate
Description: as §3, §4, §5, §7

Avena fatua (AVEFA) = test: as above; details: 360 h; for pest or weed control at 60 g/ha: 60 g/ha application rate
Description: as §3, §4, §5, §7

[21] = system: Echinochloa crus-galli (ECHCG); test: as above; details: for pest or weed control at 60 g/ha: 60 g/ha application rate
Description: as §3, §4, §5, §6
Note: The herbicidal activity data (e.g. post-emergence) shown above in Biological Example 1B for Comparator compounds X-9 and X-10 is thought likely to have been measured some years ago, probably using a variant of the above-described test method. Also, for the post-emergence activity of X-9 and X-10 it is not currently known exactly how many days after application of the herbicide the phytotoxicity on the plants was measured.

[22] = system: Triticum aestivum (TRZAW, winter wheat); test: as above; details: 360 h; for plant injury at 60 g/ha: 60 g/ha application rate
Description: as §3, §4, §5
(§8) Cool climate crop plants: Triticum aestivum (TRZAW, winter wheat), Brassica napus (BRSNN, rape, also called oilseed rape or rapeseed), Beta vulgaris (BEAVA, sugar beet).

[23] = system: Brassica napus (BRSNN, rape); test: as above; details: 360 h; for plant injury at 60 g/ha: 60 g/ha application rate
Description: as §3, §4, §5, §8

[24] = system: SORVU (Sorghum bicolor (L.) Moench ssp. Bicolor, or Sorghum vulgare Pers.); test: as above; details: 360 h, 250 g/ha application rate
Description: as §3, §4, §5, §6

[25] = system: Beta vulgaris (BEAVA, sugar beet); test: as above; details: 360 h, 250 g/ha application rate
Description: as §3, §4, §5, §8

Structure (SMILES) | pest or weed control at 250 g/ha [1] | pest or weed control at 250 g/ha [2] | pest or weed control at 250 g/ha [3] | pest or weed control at 250 g/ha [4] | pest or weed control at 250 g/ha (Setaria faberi (SETFA) [5]) | pest or weed control at 250 g/ha (Solanum nigrum (SOLNI) [6]) | pest or weed control at 250 g/ha [7] | pest or weed control at 250 g/ha [8] | pest or weed control at 250 g/ha [9] | pest or weed control at 250 g/ha [10] | pest or weed control at 250 g/ha (Setaria faberi (SETFA) [11]) | pest or weed control at 250 g/ha (Solanum nigrum (SOLNI) [12]) | plant injury at 60 g/ha [16] | pest or weed control at 60 g/ha (Setaria faberi (SETFA) [17]) | pest or weed control at 60 g/ha [18] | pest or weed control at 60 g/ha [19] | pest or weed control at 60 g/ha [20] | pest or weed control at 60 g/ha (Lolium perenne (LOLPE)) | pest or weed control at 60 g/ha (Avena fatua (AVEFA)) | pest or weed control at 60 g/ha ([21]; Echinochloa crus-galli) | other results
CC#Cc1cc(Cl)c(C2C(=O)C3CCC(C3)C2=O)c(CC)c1 (stereo not shown) [Compound A-4] | 100% | 0% | 90% | 0% | 80% | 0% | 100% | 0% | 100% | 0% | 70% | 0% | – | – | – | – | – | – | – | – | –
Cc1cc(C#CCl)ccc1C1C(=O)C(C)(C)OC(C)(C)C1=O [Compound A-7] | 80% | 0% | 80% | 20% | 80% | 50% | 80% | 60% | 80% | 20% | 30% | 40% | – | – | – | – | – | – | – | – | pest or weed control at 15.625 g/ha ([13]; 15.625 g/ha application rate): 0%; pest or weed control at 62.5 g/ha ([13]; 62.5 g/ha application rate): 60%; pest or weed control at 15.625 g/ha ([14]; 15.625 g/ha application rate): 30%; pest or weed control at 62.5 g/ha ([14]; 62.5 g/ha application rate): 50%; pest or weed control at 15.625 g/ha (Setaria faberi (SETFA) [15]; 15.625 g/ha application rate): 40%; pest or weed control at 62.5 g/ha (Setaria faberi (SETFA) [15]; 62.5 g/ha application rate): 60%
CCc1cc(C)cc(CC)c1C1C(=O)C2CCC(C2)C1=O (stereo not shown) [Compound X-10, reference compound] | – | – | – | – | – | – | – | – | – | – | – | – | 0% | 100% | 100% | 90% | 80% | 70% | 50% | 70% | post-emergence activity on ECHCG compared with Compound A-5 ([21]; 60 g/ha, probably a variant of the test method, days after application not known): lower post-emergence activity; plant injury at 60 g/ha [22]: 20%; plant injury at 60 g/ha [23]: 0%
Cc1cc(C)c(C2C(=O)C3CCC(C3)C2=O)c(C)c1 (stereo not shown) [Compound X-9, reference compound] | – | – | – | – | – | – | – | – | – | – | – | – | 0% | 80% | 70% | 80% | 20% | 0% | 0% | 40% | plant injury at 125 g/ha ([16]; 125 g/ha application rate): 0%; pest or weed control at 125 g/ha (Setaria faberi (SETFA) [17]; 125 g/ha application rate): 80%; pest or weed control at 125 g/ha ([18]; 125 g/ha application rate): 80%; pest or weed control at 125 g/ha ([19]; 125 g/ha application rate): 80%; pest or weed control at 125 g/ha ([20]; 125 g/ha application rate): 40%; pest or weed control at 125 g/ha (Lolium perenne (LOLPE); 125 g/ha application rate): 40%; pest or weed control at 125 g/ha (Avena fatua (AVEFA); 125 g/ha application rate): 0%; pest or weed control at 125 g/ha ([21]; Echinochloa crus-galli, 125 g/ha application rate): 60%; plant injury at 60 g/ha [22]: 0%; plant injury at 125 g/ha ([22]; 125 g/ha application rate): 0%; plant injury at 60 g/ha [23]: 0%; plant injury at 125 g/ha ([23]; 125 g/ha application rate): 20%
CC#Cc1cc(Cl)c(C2C(=O)C3CCC(C3)C2=O)c(OCCOC)c1 (stereo not shown) [Compound A-18] | – | – | – | – | – | – | – | – | – | – | – | – | – | – | – | – | – | – | – | – | plant injury at 250 g/ha ([16]; 250 g/ha application rate): 20%; pest or weed control at 250 g/ha [24]: 100%; pest or weed control at 250 g/ha (Setaria faberi (SETFA) [17]; 250 g/ha application rate): 80%; pest or weed control at 250 g/ha ([18]; 250 g/ha application rate): 90%; pest or weed control at 250 g/ha ([19]; 250 g/ha application rate): 70%; pest or weed control at 250 g/ha ([20]; 250 g/ha application rate): 0%; pest or weed control at 250 g/ha (Lolium perenne (LOLPE); 250 g/ha application rate): 0%; pest or weed control at 250 g/ha (Avena fatua (AVEFA); 250 g/ha application rate): 20%; pest or weed control at 250 g/ha ([21]; Echinochloa crus-galli, 250 g/ha application rate): 90%; plant injury at 250 g/ha ([22]; 250 g/ha application rate): 10%; plant injury at 250 g/ha [25]: 30%; plant injury at 250 g/ha ([23]; 250 g/ha application rate): 30%
CC#Cc1cc(C)c(C2C(=O)C3CCC(C3)C2=O)c(CCC)c1 (stereo not shown) [Compound A-3] | 100% | 10% | 90% | 0% | 90% | 20% | 100% | 0% | 100% | 40% | 100% | 0% | – | – | – | – | – | – | – | – | –
